Test results published in patent publication US6127382A, “Amines substituted with a tetrahydroquinolinyl group an aryl or heteroaryl group and an alkyl group, having retinoid-like biological activity” (Allergan Sales, Inc., priority 1999, dated 2000).
pKi: −log10 of the molar value.

These compounds were tested against T1, RARβ (Homo sapiens, UniProt P10826) (assay: ligand binding assay, RARβ). Settings: read-out: RAR Bind Ki β.
T1 sequence (P10826 1-448 isoform P10826-2): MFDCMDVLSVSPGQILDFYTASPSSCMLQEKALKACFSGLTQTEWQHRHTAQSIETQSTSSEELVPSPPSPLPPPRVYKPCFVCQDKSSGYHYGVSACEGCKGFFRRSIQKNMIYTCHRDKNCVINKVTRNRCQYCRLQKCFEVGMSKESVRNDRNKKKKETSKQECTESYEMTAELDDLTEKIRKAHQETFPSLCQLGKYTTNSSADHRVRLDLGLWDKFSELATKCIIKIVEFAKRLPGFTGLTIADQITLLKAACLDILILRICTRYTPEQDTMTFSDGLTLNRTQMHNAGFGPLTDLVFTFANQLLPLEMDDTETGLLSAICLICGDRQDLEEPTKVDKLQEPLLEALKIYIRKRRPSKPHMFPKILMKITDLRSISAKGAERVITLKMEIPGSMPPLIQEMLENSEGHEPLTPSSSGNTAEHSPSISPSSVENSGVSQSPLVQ
Excerpt: Other assays described below, measure the ability of the compounds of the present invention to bind to, and/or activate various retinoid receptor subtypes. When in these assays a compound binds to a given receptor subtype and activates the transcription of a reporter gene through that subtype, then the compound is considered an agonist of that receptor subtype. […] In the below described assays the ability of the compounds to bind to RARα, RARβ, RARγ, RXRα, RXRβ and RXRγ receptors, and the ability or inability of the compounds to activate transcription of a reporter gene through these receptor subtypes can be tested. […] However, some of the compounds of the invention may behave as retinoid antagonists or partial antagonists and/or as inverse agonists. Because of the complex distribution of the different retinoid receptors in various organs of the mammalian body partial agonists and partial antagonists and compounds which have the characteristics of both may lend themselves to particularly useful therapeutic applications and may avoid serious side effects of conventional retinoid drugs.
A holoreceptor transactivation assay and a ligand binding assay which measure the antagonist/agonist like activity of the compounds of the invention, or their ability to bind to the several retinoid receptor subtypes, respectively, are described in published PCT Application No. WO WO93/11755 (particularly on pages 30-33 and 37-41) published on Jun. 24, 1993, the specification of which is also incorporated herein by reference. A detailed experimental procedure for holoreceptor transactivations has been described by Heyman et al. Cell 68, 397-406, (1992); Allegretto et al. J. Biol. Chem. 268, 26625-26633, and Mangelsdorf et al. The Retinoids: Biology, Chemistry and Medicine, pp 319-349, Raven Press Ltd., New York, which are expressly incorporated herein by reference. The results obtained in this assay are expressed in EC50 numbers, as they are also in the chimeric receptor transactivation assay. The results of ligand binding assay are expressed in Kd numbers. (See Cheng et al. Biochemical Pharmacology Vol. 22 pp 3099-3108, expressly incorporated herein by reference.)
Table 1 discloses the activity of certain exemplary compounds of the invention in the above-described chimeric receptor transactivation assay, holoreceptor transactivation assay and a ligand binding assays. Particularly, the transactivation data pertaining to RAR receptors were obtained in the chimeric assay, and the data pertaining to transactivation of RXR receptors were obtained in the holoreceptor transactivation assay.
In the case of `CC(C)N1CCC(C)(C)c2ccc(N(CC3CC3)c3ccc(C(=O)O)cc3)cc21` [Compound 40, 4-[(1-Isolpropyl-4,4-dimethyl-1,2,3,4-tetrahydroquinolin-7-yl)(cylopropylmethyl)amino]benzoic acid], the pKi was 4.62. `CCN(c1ccc(C(=O)O)cc1)c1ccc2c(c1)C(C)(C)CC(=O)N2C(C)C` [Compound 6, 4-[(1-Isopropyl-4,4-dimethyl-2-oxo-1,2,3,4-tetrahydroquinolin-6-yl)ethylamino]benzoic Acid] showed a pKi of less than 4.52. For `Cc1cc2c(cc1N(C)c1ccc(C(=O)O)cc1)C(C)(C)CCN2C(C)C` [Compound 22, 4-[(1-Isopropyl-4,4,7-trimethyl-1,2,3,4-tetrahydroquinolin-6-yl)methylamino]benzoic acid], the pKi was less than 5.00. With `CCN(c1ccc(C(=O)O)cc1)c1ccc2c(c1)N(C(C)C)CCC2(C)C` [Compound 38, 4-[(1-Isopropyl-4,4-dimethyl-1,2,3,4-tetrahydroquinolin-7-yl)ethylamino]benzoic acid] the pKi was less than 5.00. With `CCN(c1ccc(C(=O)O)cc1)c1ccc2c(c1)C(C)(C)CCN2C(C)C` [Compound 12, 4-[(1-Isopropyl-4,4-dimethyl-1,2,3,4-tetrahydroquinolin-6-yl)ethylamino]benzoic acid] the pKi was 5.10. With `CC(C)CCN(c1ccc(C(=O)O)cc1)c1ccc2c(c1)C(C)(C)CCN2C(C)C` [Compound 14, 4-[(1-Isopropyl-4,4-dimethyl-1,2,3,4-tetrahydroquinolin-6-yl)(3-methylbutyl)amino]-benzoic Acid] the pKi was 5.11. `CCN(c1ccc(C(=O)O)cc1)c1cc2c(cc1C)N(C(C)C)CCC2(C)C` [Compound 24, 4-[(1-Isopropyl-4,4,7-trimethyl-1,2,3,4-tetrahydroquinolin-6-yl)ethylamino]benzoic acid] was tested, and the pKi was less than 5.00. Work on `Cc1cc2c(cc1N(CC1CC1)c1ccc(C(=O)O)cc1)C(C)(C)CCN2C(C)C` [Compound 26, 4-[(1-Isopropyl-4,4,7-trimethyl-1,2,3,4-tetrahydro-quinolin-6-yl)(cyclopropylmethyl)amino]benzoic acid] yielded a pKi of 4.96. In the case of `CC(C)N1CCC(C)(C)c2cc(N(C)c3ccc(C(=O)O)cc3)ccc21` [Compound 10, 4-[(1-Isopropyl-4,4-dimethyl-1,2,3,4-tetrahydroquinolin-6-yl)methylamino]benzoic Acid], the pKi was less than 5.00. Compound `CC(C)CN(c1ccc(C(=O)O)cc1)c1ccc2c(c1)N(C(C)C)CCC2(C)C` [Compound 39, 4-[(1-Isopropyl-4,4-dimethyl-1 2,3,4-tetrahydroquinolin-7-yl)isobutylamino]benzoic acid] has a pKi of less than 5.00.
